Earlier results in patent publication US6887894B2, “Use of lipoic acid for improving the bioavailability of mineral salts” (BASF Aktiengesellschaft, priority 2000, dated 2005).

How the values were obtained:
[1] = in vivo; cited from earlier work
[2] = in vivo; cited from earlier work; remark: listed apart in the source

| Structure (SMILES) | bioavailability of Zn2+ from organic or inorganic sources [1] | effects on Zn bioavailability (results of previous studies) [2] |
| --- | --- | --- |
| [Cl-].[Cl-].[Zn+2] [ZnCl2] | roughly comparable |  |
| O=C(O)C(=O)O [oxalic acid] |  | not uniform |
| O=C(O)c1ccccn1 [picolinic acid] |  | not uniform |
